Experiment [1] relates to Monocotyledonous and dicotyledonous test plants. In words: Herbicidal action prior to emergence of the plants (pre-emergence action), Example B1. As to conditions: preemergence application, 250 g/ha, evaluated after 4 weeks, 100%=total damage, 0%=no damage. In kind it is in vivo. The procedure:
(§1) Monocotyledonous and dicotyledonous test plants are sown in seed trays in standard soil. Immediately after sowing, the test compounds are applied by spraying in the form of an aqueous suspension (prepared from a wettable powder (Example F3, b) according to WO 97/34485) or in the form of an emulsion (prepared from an emulsifiable concentrate (Example F1, c) according to WO 97/34485) in a concentration of 250 g/ha. The test plants are then grown in a greenhouse under optimum conditions. After a 4-week test period, the test is evaluated (100%=total damage to plant; 0%=no damage to plant; NC not evaluated).

Experiment [2] has the same test system. Kind of experiment: Herbicidal action after emergence of the plants (post-emergence herbicidal action), Example B2. In kind it is in vivo. As to conditions: postemergent application, 125 g/ha, 2- to 3-leaf stage, evaluated after 2-3 weeks, 100%=total damage. The procedure:
as §1, with “When the test plants are at the 2- to 3-leaf stage,” for “Immediately after sowing,”, “125” for “250”, “grown on” for “grown”, “2- to 3-week” for “4-week”, “plant).” for “plant; NC not evaluated).”

With `Cc1nnc2c(C(=O)C3=C(O)C4CCC(C4)C3=O)ccc(C(F)F)n12` (stereo not drawn) [Compound 1.54], in experiment [1], the “herbicidal damage, ABUTH” value worked out at 20%; the “herbicidal damage, AMARE” value came to 10%; the “herbicidal damage, BRAPL” value is reported as 40%; the “herbicidal damage, DIGSA” value is on record as 0%. Also, in experiment [1], the “herbicidal damage, ECHCG” value is given as 0%; the “herbicidal damage, SETFA” value came to 0%; the “herbicidal damage, STEME” value came out at 0%; the “herbicidal damage, VERPE” value was found to be 20%. In experiment [2], the “herbicidal damage, ABUTH” value amounted to 70%; the “herbicidal damage, AMARE” value worked out at 80%; the “herbicidal damage, CHEAL” value amounted to 70%; the “herbicidal damage, DIGSA” value amounted to 60%. For the same compound, in experiment [2], the “herbicidal damage, SETFA” value worked out at 50%; the “herbicidal damage, SINAR” value is 60%; the “herbicidal damage, VERPE” value was determined as 60%; the “herbicidal damage, XANST” value stood at 70%.
Consider `Cc1nnc2c(C(=O)c3cnn(C)c3O)ccc(C(F)(F)F)n12` [Compound 6.3], for which, in experiment [1], the “herbicidal damage, ABUTH” value is recorded as 10%; the “herbicidal damage, AMARE” value stood at 70%; the “herbicidal damage, DIGSA” value is given as 30%; the “herbicidal damage, ECHCG” value was 30%. Moreover, in experiment [1], the “herbicidal damage, SETFA” value came out at 0%; the “herbicidal damage, STEME” value amounted to 40%; the “herbicidal damage, VERPE” value is reported as 80%. In experiment [2], the “herbicidal damage, ABUTH” value is listed as 60%; the “herbicidal damage, AMARE” value is 90%; the “herbicidal damage, CHEAL” value is reported as 70%; the “herbicidal damage, DIGSA” value is on record as 80%. Also, in experiment [2], the “herbicidal damage, SETFA” value stood at 60%; the “herbicidal damage, SINAR” value is 80%; the “herbicidal damage, VERPE” value worked out at 80%; the “herbicidal damage, XANST” value turned out to be 80%.
For the compound `CCc1nnc2c(C(=O)C3=C(O)CCCC3=O)ccc(C(F)(F)F)n12` [Compound 3.5], in experiment [1], the “herbicidal damage, ABUTH” value amounted to 100%; the “herbicidal damage, AMARE” value was 70%; the “herbicidal damage, BRAPL” value was found to be 80%; the “herbicidal damage, DIGSA” value was found to be 90%. Further, in experiment [1], the “herbicidal damage, ECHCG” value is recorded as 70%; the “herbicidal damage, SETFA” value was determined as 90%; the “herbicidal damage, STEME” value came to 60%; the “herbicidal damage, VERPE” value worked out at 30%. Moreover, in experiment [2], the “herbicidal damage, ABUTH” value was found to be 90%; the “herbicidal damage, AMARE” value is 100%; the “herbicidal damage, CHEAL” value was found to be 90%; the “herbicidal damage, DIGSA” value is listed as 80%. In experiment [2], the “herbicidal damage, SETFA” value worked out at 70%; the “herbicidal damage, SINAR” value is given as 80%; the “herbicidal damage, VERPE” value was 90%; the “herbicidal damage, XANST” value turned out to be 80%.
Take `CC1(C)C(=O)C(C(=O)c2ccc(C(F)(F)F)n3c(Br)nnc23)=C(O)C(C)(C)C1=O` [Compound 5.2]: in experiment [2], the “herbicidal damage, ABUTH” value was found to be 90%; the “herbicidal damage, AMARE” value turned out to be 80%; the “herbicidal damage, CHEAL” value came out at 100%; the “herbicidal damage, DIGSA” value is recorded as 70%. Moreover, in experiment [2], the “herbicidal damage, SETFA” value came to 80%; the “herbicidal damage, SINAR” value amounted to 90%; the “herbicidal damage, VERPE” value is given as 90%; the “herbicidal damage, XANST” value came to 70%.
Take `O=C(C1=C(O)C2CCC(C2)C1=O)c1ccc(C(F)(F)F)n2ncnc12` (stereo not drawn) [2.1]: in experiment [1], the “herbicidal damage, ABUTH” value came out at 100%; the “herbicidal damage, AMARE” value was 100%; the “herbicidal damage, BRAPL” value is listed as 100%; the “herbicidal damage, DIGSA” value is 100%. For the same compound, in experiment [1], the “herbicidal damage, ECHCG” value worked out at 90%; the “herbicidal damage, SETFA” value is 90%; the “herbicidal damage, STEME” value is reported as 70%; the “herbicidal damage, VERPE” value amounted to 40%.
`O=C1CCCC(O)=C1C(=O)c1ccc(C(F)(F)F)n2cnnc12` [Compound 3.1]: in experiment [1], the “herbicidal damage, ABUTH” value was 100%; the “herbicidal damage, AMARE” value amounted to 100%; the “herbicidal damage, BRAPL” value is 40%; the “herbicidal damage, DIGSA” value stood at 100%. Moreover, in experiment [1], the “herbicidal damage, ECHCG” value was 10%; the “herbicidal damage, SETFA” value was found to be 0%; the “herbicidal damage, STEME” value amounted to 70%; the “herbicidal damage, VERPE” value stood at 60%.
Consider `O=C(C1=C(O)C2CCC(C2)C1=O)c1ccc(C(F)(F)F)n2c(-c3ccc(Cl)cc3)nnc12` (stereo not drawn) [Compound 1.35], for which, in experiment [1], the “herbicidal damage, ABUTH” value is recorded as 50%; the “herbicidal damage, AMARE” value is given as 100%; the “herbicidal damage, BRAPL” value is listed as 100%; the “herbicidal damage, DIGSA” value was 100%. Also, in experiment [1], the “herbicidal damage, ECHCG” value was 0%; the “herbicidal damage, SETFA” value came to 30%; the “herbicidal damage, STEME” value turned out to be 70%; the “herbicidal damage, VERPE” value was 40%.
Consider `O=C(C1=C(O)C2CCC(C2)C1=O)c1ccc(C(F)(F)F)n2nc(-c3ccc(Cl)cc3)nc12` (stereo not drawn) [2.35], for which, in experiment [1], the “herbicidal damage, ABUTH” value was found to be 0%; the “herbicidal damage, AMARE” value came to 0%; the “herbicidal damage, BRAPL” value was found to be 50%; the “herbicidal damage, DIGSA” value was found to be 20%. Moreover, in experiment [1], the “herbicidal damage, ECHCG” value stood at 0%; the “herbicidal damage, SETFA” value turned out to be 0%; the “herbicidal damage, STEME” value is 50%; the “herbicidal damage, VERPE” value is 0%.
Take `O=C1CCCC(O)=C1C(=O)c1ccc(C(F)(F)F)n2c(-c3cccnc3)nnc12` [Compound 3.15]: in experiment [1], the “herbicidal damage, ABUTH” value was 10%; the “herbicidal damage, AMARE” value was 0%; the “herbicidal damage, BRAPL” value was 30%; the “herbicidal damage, DIGSA” value is reported as 30%. Besides, in experiment [1], the “herbicidal damage, ECHCG” value was 30%; the “herbicidal damage, SETFA” value was determined as 30%; the “herbicidal damage, STEME” value stood at 60%; the “herbicidal damage, VERPE” value amounted to 30%.
`Cc1nc2c(C(=O)C3=C(O)CCCC3=O)ccc(C(F)(F)F)n2n1` [Compound 11.3]: in experiment [1], the “herbicidal damage, ABUTH” value amounted to 70%; the “herbicidal damage, AMARE” value stood at 40%; the “herbicidal damage, BRAPL” value came to 50%; the “herbicidal damage, DIGSA” value came to 30%. Further, in experiment [1], the “herbicidal damage, ECHCG” value was found to be 0%; the “herbicidal damage, SETFA” value came to 10%; the “herbicidal damage, STEME” value is 40%; the “herbicidal damage, VERPE” value is given as 40%.
Take `O=C1CCCC(O)=C1C(=O)c1ccc(C(F)(F)F)n2c(Cl)nnc12` [Compound 3.2]: in experiment [1], the “herbicidal damage, ABUTH” value was 100%; the “herbicidal damage, AMARE” value is 100%; the “herbicidal damage, BRAPL” value is 0%; the “herbicidal damage, DIGSA” value was found to be 80%. In experiment [1], the “herbicidal damage, ECHCG” value is 70%; the “herbicidal damage, SETFA” value worked out at 0%; the “herbicidal damage, STEME” value was found to be 100%; the “herbicidal damage, VERPE” value came to 100%.
Regarding `CC1(C)C(=O)C(C(=O)c2ccc(C(F)(F)F)n3cnnc23)=C(O)C(C)(C)C1=O` [Compound 5.1], in experiment [1], the “herbicidal damage, ABUTH” value is reported as 100%; the “herbicidal damage, AMARE” value is 100%; the “herbicidal damage, BRAPL” value was determined as 100%; the “herbicidal damage, DIGSA” value came out at 100%. In experiment [1], the “herbicidal damage, ECHCG” value came out at 90%; the “herbicidal damage, SETFA” value is on record as 40%; the “herbicidal damage, STEME” value is on record as 100%; the “herbicidal damage, VERPE” value was determined as 80%.
In the case of `O=C1CCCC(O)=C1C(=O)c1ccc(C(F)(F)F)n2c(OC(F)F)nnc12` [Compound 3.12], in experiment [1], the “herbicidal damage, ABUTH” value is on record as 50%; the “herbicidal damage, AMARE” value is reported as 100%; the “herbicidal damage, BRAPL” value is given as 60%; the “herbicidal damage, DIGSA” value is listed as 10%. Besides, in experiment [1], the “herbicidal damage, ECHCG” value stood at 0%; the “herbicidal damage, SETFA” value was found to be 0%; the “herbicidal damage, STEME” value came out at 0%.

For the origin of these results see patent US20100035756A1, “TRIAZOLOPHYRIDINE DERIVATIVES AS HERBICIDES” (SYNGENTA LIMITED, priority 2006, published 2010).
